Measurements published in EP0190464A2, “Novel anti-cancer drugs” (YEDA RESEARCH AND DEVELOPMENT COMPANY LIMITED, priority 1984, dated 1986).

Experiments:
[1] = test system: F-9 murine embryonal carcinoma cells; test: In vivo suppression of F-9 embryonal carcinoma, I.P. tumor and I.P. treatment; set-up: species or system Balb/c mice; effective dose (range): unit not given here; settings: for survival (average): free drug at optimal doses, one day after tumor
Protocol: In vivo experiments were performed with F-9 murine embryonal carcinoma cells which were maintained in-vitro in DMEM supplemented with 10% fetal calf serum, glutamine and antibiotics, in gelatine (0.1%) coated culture flasks. In-vivo experiments were performed in female Balb/c mice at the age of 2-3 months.
In experiment I, 300,000 tumor cells were inoculated intraperitoneally (I.P.) into Balb/c mice.
The in vivo chemotherapeutic effect of the different complexes in comparison with free drugs was evaluated by the suppression of F9 embryonal carcinoma in Balb/c mice. […]

38C-13 tumor cells = test: Inhibition of DNA synthesis ([3H]-methylthymidine incorporation); type: cell-based, murine; settings: Fig. 2
Protocol: Inhibition of DNA synthesis by the free platinum compounds of their complexes was determined as follows. Tumor cells (2-5 x 10^4/0.1 ml) suspended in their suitable grwoth media were dispersed into wells of microtiter plates. The Platinum compounds or complexes were added to the cells in […] aliquots. The plates were incubated for 21 hr at 37 °C in a humidified atmosphere of 5% CO2 in air. At that time 10 µl containing 0.5 µci of [^3H]-methylthymidine were added to each well and the plates were incubated for 3 hr as above. The reaction was terminated using a Titerteck cell harvester.
Pt complexes used in the in vitro and in vivo experiments were prepared under conditions of maximal binding, that is, 98-100% binding of the free drugs. In vivo experiments were performed with cis-Pt and cis-aq complexes. […] Cis-Pt and cis-aq complexes of dex-NH2 were tested and found to be active in vitro against 5 murine tumors (EL-4, 38-C13, L1210, RDM and F-9) and 2 human derived tumors (Hela and Osteosarcoma). […] This activity was lost, however upon exhaustive dialysis.

tumors = test: Activity against tumors in vivo (general statement); settings: uncomplexed salt
[2] = Toxicity in tumor-free mice, single I.V. injection; type: in vivo; settings: free drugs, ICR mice
Protocol: Preliminary toxicity experiments with CM-dex and ?ex-NH2 complexes were performed to compare the toxicity of the free drugs and the complexes in tumor-free ICR mice. Pairs of mice were given a single I.V. injection of each of the drugs or drug complexes at a wide concentration range. Death of mice due to toxicity occurred between 1 to 7 days after injection. The results (Table 8) indicate the maximal non-toxic (none of the mice died) and the minimal toxic dose (death of both mice). […] The CM-dex T-40 of both drugs were also toxic although somewhat less than the free drugs, with no significant difference between the cis-Pt and cis-aq complexes. […] The dex-NH2 were also considerably less toxic than the free drugs.

[3] = Exp. II: 600,000 cells I.P., treatment 2 days after tumor, 60 µg
[4] = Exp. I: 300,000 tumor cells I.P., 50 µg, out of 5 TBM

Row | SMILES | died of the tumor ([1]; Exp. I: 300,000 tumor cells I.P., 100 ug I.P. 1 day after tumor inoculation) | time of death of the tumor after receiving the tumor cells ([1]; Exp. I: 300,000 tumor cells I.P., 100 ug I.P. day 1, the 1/5 mouse that died of tumor) [days] | protective against the tumor [1, 3] | survival (average) ([1]; F9 tumor, Table 7) | fold less inhibitory than cis-Pt and cis-aq (38C-13 tumor cells) [fold] | IC50 (38C-13 tumor cells; read-out: 50% inhibition of DNA synthesis, 21 hr at 37°C with drug, then 3 hr [3H]-methylthymidine pulse) [µM] | activity against tumors in vivo (tumors) | died of drug toxicity [1, 4] | died of the tumor [1, 4] | survived [1, 4] | non-protective against the tumor [1, 3] | toxic [1, 3] | effective dose (range) ([1]; F9 tumor, single dose, Table 5) | toxicity at a slightly higher than optimal dose ([1]; F9 tumor, free drug, Table 7) | toxicity compared with cis-Pt [2]
1 | N.N.[Cl][Pt][Cl] [cis-Pt, Cis-dichlorodiammine Platinum (II)] | 1/5 | 54 | 4/5 | 60-80% | – | – | – | – | – | – | – | – | – | – | –
2 | [Cl][Pt-2]([Cl])([Cl])[Cl].[K+].[K+] [K2PtCl4] | – | – | – | – | 20 | 20 | essentially inactive | – | – | – | – | – | – | – | –
3 | N.N.O.O.O=[N+]([O-])[O-].O=[N+]([O-])[O-].[Pt+2] [cis-aq, diaquodiammine Platinum (II)-nitrate] | – | – | – | 60-80% | – | – | – | 1 | 3 | 1 | 2/5 | 3/5 | 40 | at least partially toxic | more toxic than cis-Pt
